The structures appear in SMILES notation.

In assay [1] the target is T1, recombinant RNR (RRM1 + RRM2) (Homo sapiens, UniProt P31350).
T1 construct: with Ribonucleoside-diphosphate reductase large subunit
T1 sequence (P31350 1-389): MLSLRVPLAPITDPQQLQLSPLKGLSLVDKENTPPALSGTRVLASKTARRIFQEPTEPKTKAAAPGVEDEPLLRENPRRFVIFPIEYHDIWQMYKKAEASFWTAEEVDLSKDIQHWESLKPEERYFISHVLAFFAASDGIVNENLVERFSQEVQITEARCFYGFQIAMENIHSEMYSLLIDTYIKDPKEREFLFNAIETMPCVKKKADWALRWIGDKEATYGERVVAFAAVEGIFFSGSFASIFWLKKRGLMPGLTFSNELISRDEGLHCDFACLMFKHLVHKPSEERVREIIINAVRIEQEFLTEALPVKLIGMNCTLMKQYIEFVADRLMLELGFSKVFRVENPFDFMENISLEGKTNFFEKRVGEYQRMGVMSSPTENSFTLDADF
T1 sequence (P23921 1-792 partner): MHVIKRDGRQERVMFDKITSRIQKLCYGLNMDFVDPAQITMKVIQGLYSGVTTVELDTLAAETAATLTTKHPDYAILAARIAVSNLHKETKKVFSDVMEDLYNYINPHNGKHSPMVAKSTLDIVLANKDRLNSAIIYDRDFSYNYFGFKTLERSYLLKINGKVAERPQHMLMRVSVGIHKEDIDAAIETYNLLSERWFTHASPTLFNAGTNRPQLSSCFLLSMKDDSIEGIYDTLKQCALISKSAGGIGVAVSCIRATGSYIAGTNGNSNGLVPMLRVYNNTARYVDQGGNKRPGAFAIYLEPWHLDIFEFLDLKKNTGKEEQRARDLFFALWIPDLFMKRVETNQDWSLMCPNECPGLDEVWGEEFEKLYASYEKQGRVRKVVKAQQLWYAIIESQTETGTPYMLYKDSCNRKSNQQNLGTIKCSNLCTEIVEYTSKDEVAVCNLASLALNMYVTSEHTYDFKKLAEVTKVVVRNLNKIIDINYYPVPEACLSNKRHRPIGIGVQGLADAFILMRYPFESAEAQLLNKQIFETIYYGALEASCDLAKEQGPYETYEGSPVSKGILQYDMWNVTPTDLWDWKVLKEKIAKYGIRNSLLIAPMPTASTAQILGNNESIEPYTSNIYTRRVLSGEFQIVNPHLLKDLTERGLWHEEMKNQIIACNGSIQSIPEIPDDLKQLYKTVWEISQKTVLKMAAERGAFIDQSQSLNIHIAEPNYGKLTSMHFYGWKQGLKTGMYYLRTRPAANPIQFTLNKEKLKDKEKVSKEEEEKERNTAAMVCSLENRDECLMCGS
The assay can be described thus: recombinant RNR activity assay, CDP to dCDP conversion. It counts as biochemical.

Assay [2] deals with T2, RRM2 (Homo sapiens, UniProt P31350).
T2 construct: recombinant purified RRM2, lysine-labelled for MST
T2 sequence (P31350 1-389): T1 sequence (P31350 1-389)
Description: microscale thermophoresis. Type of assay: binding.

The IC50 is the concentration that gives 50% inhibition. With `NC(=O)NO` [HU, hydroxyurea, reference compound], in assay [1], the IC50 worked out at 29.8 µM.
What is called Kd is a measure of binding affinity in units of concentration. The low end stands for a tighter complex, the high end for a looser complex. Consider `Oc1ccc(OCc2ccccc2)cc1` [MB, monobenzone], for which the 50% inhibitory concentration (IC50) in assay [1] stood at 0.25 µM. This compound also returned a Kd in assay [2] of 22.5 ± 14 µM.
